Earlier results as cited in US20060078541A1, “Method and formula for stem cells' stimulation, targeting release, trafficking and homing” (priority 2004, published 2006).

Settings: in vivo

[Cs+] [Cesium ions]
biological half life (human): 50-60 days
assimilated: ~100%
